Laboratory results from patent US10981926B2 (Janssen Pharmaceutica NV, priority 2016, dated 2021).
Like-named read-outs stand apart in the source and are kept apart here.

Experiments:
[1] = molecular target: F876L mutant Androgen Receptor (AR-F876L) (Homo sapiens (Human), UniProt P10275, F877L); experiment: LNCaP-AR-F876L ANT reporter assay (antagonist mode); format: cell-based
AR W741C = AR W741C (Homo sapiens (Human), UniProt P10275, W742C); experiment: Luciferase Transcriptional Reporter Assay, AR W741C (HepG2); format: cell-based
AR W741C, sequence (P10275 whole entry W742C): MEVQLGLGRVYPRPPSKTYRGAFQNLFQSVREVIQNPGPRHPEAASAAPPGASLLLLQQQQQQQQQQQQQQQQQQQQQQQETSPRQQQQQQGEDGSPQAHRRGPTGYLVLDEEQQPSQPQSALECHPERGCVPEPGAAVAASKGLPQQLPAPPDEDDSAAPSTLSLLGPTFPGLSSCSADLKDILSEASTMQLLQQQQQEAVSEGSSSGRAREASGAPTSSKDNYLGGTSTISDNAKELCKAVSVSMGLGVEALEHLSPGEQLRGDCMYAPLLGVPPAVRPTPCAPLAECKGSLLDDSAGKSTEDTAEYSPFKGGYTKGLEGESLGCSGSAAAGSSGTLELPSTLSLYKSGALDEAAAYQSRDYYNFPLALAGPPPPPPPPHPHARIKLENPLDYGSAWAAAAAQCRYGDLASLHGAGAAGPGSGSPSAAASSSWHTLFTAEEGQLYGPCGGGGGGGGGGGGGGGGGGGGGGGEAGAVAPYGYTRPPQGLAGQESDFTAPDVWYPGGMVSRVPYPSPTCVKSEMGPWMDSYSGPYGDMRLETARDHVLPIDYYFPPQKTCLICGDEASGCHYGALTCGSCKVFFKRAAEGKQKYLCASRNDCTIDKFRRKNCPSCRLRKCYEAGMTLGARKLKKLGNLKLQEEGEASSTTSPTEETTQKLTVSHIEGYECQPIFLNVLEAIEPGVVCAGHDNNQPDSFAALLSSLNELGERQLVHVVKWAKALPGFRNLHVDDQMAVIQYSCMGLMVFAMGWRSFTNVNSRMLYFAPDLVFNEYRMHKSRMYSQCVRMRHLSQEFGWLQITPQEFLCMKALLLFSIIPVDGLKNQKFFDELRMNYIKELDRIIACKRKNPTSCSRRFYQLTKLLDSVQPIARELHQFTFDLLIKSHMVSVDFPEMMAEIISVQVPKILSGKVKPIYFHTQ
Experimental: (§1) HepG2 cells were maintained in EMEM supplemented with 10% FBS. One day before transfection, the media was changed to EMEM with 10% CSS. T-150 flasks were transiently transfected using 120 μL Lipofectamine 2000 (Life Technologies), 30 μg mutant cDNA (expression vector)—mutant cDNA tested were L701H, T877A, W741C and H874Y—and 40 μg 4×ARE-Luciferase (reporter vector) in OptiMEM and the flasks were incubated overnight. Cells were then trypsinized, counted and resuspended at 500,000 cells/mL. For agonist mode, the compounds of Formula (I) were serially diluted and 50 μL of the compound was added per well. 50 μL of the cells were added to each well and incubated for 48 hours. For antagonist mode, a final concentration of 90 pM R1881 was added to the diluted compounds and incubated for 48 hours. The plates were then assayed using SteadyGlo and read on the Envision. Percent Stimulation and Inhibition were determined and analyzed using GraphPad Prism.
(§2) F876L agonism was evident at 3 and 10 μM (5%) but zero at 30 μM. The antagonistic (IC50) and agonistic (EC50) values for each of the AR cDNA used in the reporter assays are summarized. All values are calculated relative to the activity of R1881 induced androgen receptor activity (n≥3). Also indicated are the maximal inhibition and extent of induction of androgen dependent signaling (%).

VCaP cells = experiment: Prostate Cancer Cell Viability Assay-VCaP; format: cell-based; conditions: Homo sapiens, 120 h, 5 days, CellTiter-Glo
Experimental: VCaP cells were counted and seeded into black 384-well plates with clear bottoms at a concentration of 125,000 cells per mL in phenol red-free DMEM containing 10% Charcoal Stripped Serum. 16 μL of the suspension was added per well and incubated for 48 h to allow the cells to adhere. After 48 hours, a 12 point serial semilog dilution of each compound was added to the cells in 16 μL at a final concentration of 100 μM to 0.0003 μM. The compounds of Formula (I) were also run in antagonist mode using 30 pM R1881 in which 8 μL of the compound was added to the cells followed by 8 μL of R1881. After 5 days of incubation at 37° C., 16 μL Of CellTiter-Glo (Promega) was added to the cells and the relative luminescence units (RLUs) of each well determined using the Envision. The percent stimulation and % inhibition were determined for each sample and plotted using GraphPad Prism.

AR in LNCaP cells = AR in LNCaP cells (Homo sapiens (Human), UniProt P10275, T878A); experiment: LNCaP AR Localization Assay; format: cell-based; conditions: 4 h, read-out: Inhibition of translocation
AR in LNCaP cells, sequence (P10275 whole entry T878A): as the sequence (P10275 whole entry W742C) above, with C742W, T878A counted along it
Experimental: LNCaP cells were expanded in RPMI 10% FBS in T150 flasks. The cells were dislodged with 0.25% Trypsin, washed in complete media, centrifuged (300 g, 3 min), and the supernatant aspirated. The cells were resuspended in RPMI phenol-red free media with 1% charcoal-stripped serum (CSS) and counted using a ViCELL (Beckman-Coulter). Three million cells in 7 mL of RPMI CSS were seeded into 100 mm dishes and incubated overnight at 37° C. 5% CO2. The following morning, compound dilutions were prepared in RPMI CSS using 50 mM stock solutions and added directly to the cells to obtain the final concentration of 10 μM. The dishes were placed into the incubator for 4 h. After 4 h, cell scrapers were used to dislodge the cells and the media/cell solution was centrifuged, supernatant aspirated, and then washed with Cell Wash Buffer (Protein Simple). The pellets were stored at −80° C. or processed immediately using the Subcellular Protein Fractionation Kit for Cultured Cells (Thermo-Fisher). The fractions obtained from this kit were stored at −80° C. Later, the samples' protein concentration was determined using the BCA Assay Kit (Thermo-Fisher) and the fraction lysates normalized to 0.6 mg/mL. The lysates were run on the Wes Simple Western platform (ProteinSimple). The data was analyzed, normalized to the total AR, and plotted in GraphPad Prism. […]

[2] = molecular target: wild-type Androgen Receptor (AR-wt) (Homo sapiens (Human), UniProt P10275); experiment: LNCaP-AR-wt ANT reporter assay (antagonist mode); format: cell-based
wild-type Androgen Receptor (AR-wt), sequence (P10275 whole entry): as the sequence (P10275 whole entry W742C) above, with C742W counted along it

GR (human) = GR (human) (Homo sapiens (Human), UniProt P04150); experiment: Radioligand binding to GR; conditions: [3H]dexamethasone, IM-9 cells (cytosol)
GR (human), sequence (P04150 whole entry): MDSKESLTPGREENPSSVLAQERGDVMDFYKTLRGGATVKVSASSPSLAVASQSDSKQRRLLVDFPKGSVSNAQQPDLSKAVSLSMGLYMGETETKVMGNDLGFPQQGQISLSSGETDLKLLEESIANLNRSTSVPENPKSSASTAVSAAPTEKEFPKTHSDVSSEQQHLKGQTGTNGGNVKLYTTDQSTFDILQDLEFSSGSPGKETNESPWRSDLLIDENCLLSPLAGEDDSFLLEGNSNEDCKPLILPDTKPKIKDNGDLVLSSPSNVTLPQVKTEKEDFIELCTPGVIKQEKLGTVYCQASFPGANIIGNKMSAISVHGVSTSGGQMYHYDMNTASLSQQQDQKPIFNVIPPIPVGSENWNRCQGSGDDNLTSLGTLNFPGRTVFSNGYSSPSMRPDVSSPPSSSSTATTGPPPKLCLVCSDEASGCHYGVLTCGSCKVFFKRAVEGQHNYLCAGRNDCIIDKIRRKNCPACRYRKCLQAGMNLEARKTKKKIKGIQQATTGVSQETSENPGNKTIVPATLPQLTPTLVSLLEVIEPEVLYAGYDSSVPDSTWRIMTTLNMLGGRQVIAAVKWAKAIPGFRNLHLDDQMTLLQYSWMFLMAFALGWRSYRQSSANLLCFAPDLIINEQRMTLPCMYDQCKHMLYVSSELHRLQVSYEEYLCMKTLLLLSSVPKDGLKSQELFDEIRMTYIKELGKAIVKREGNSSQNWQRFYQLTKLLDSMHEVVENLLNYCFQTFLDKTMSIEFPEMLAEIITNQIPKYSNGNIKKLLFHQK
Experimental: Radioligand binding assays were performed with the cell extracts and ligands as detailed below. Complete methodology is contained within the cited publications. Kd values were determined by Non-Specific Incubation Detection Method.
GR (human) (agonist radioligand) IM-9 cells (cytosol)
[^3H]dexamethasone 1.5 nM 1.5 nM triamcinolone (10 μM) 6 h 4° C. Scintillation counting (Clark, A. F et al. (1996) Invest. Ophtalmol. Vis. Sci., 37: 805-813).
The results are expressed as a percent of control specific binding measured specific binding*100 control specific binding and as a percent inhibition of control specific binding 100-(measured specific binding*100) control specific binding obtained in the presence of compound.
The IC50 values (concentration causing a half-maximal inhibition of control specific binding) and Hill coefficients (nH) were determined by non-linear regression analysis of the competition curves generated with mean replicate values using Hill equation curve fitting. Y=D+[A−D] 1+(C/C50)nH […]
The inhibition constants (Ki) were calculated using the Cheng Prusoff equation: Ki=[…]
Radioligand binding inhibition and affinity calculations were determined using [^3H]-methyltrienolone, [^3H]-dexamethasone and [^3H]-estradiol for AR, GR and ER, respectively. […]

AR T877A = AR T877A (Homo sapiens (Human), UniProt P10275, T878A); experiment: Luciferase Transcriptional Reporter Assay, AR T877A (HepG2); format: cell-based
AR T877A, sequence (P10275 whole entry T878A): as the sequence (P10275 whole entry W742C) above, with C742W, T878A counted along it
Experimental: as §1, §2

[3] = antagonist mode, pIC50 = −Log10(IC50 in Molar)
[4] = maximum % inhibition of R1881 control response over the tested concentration range

F876L mutant Androgen Receptor (AR-F876L), sequence (P10275 whole entry F877L): as the sequence (P10275 whole entry W742C) above, with C742W, F877L counted along it

N#Cc1ncc(N2C(=O)C3(CCC3)N(c3ccc(OC4CCNCC4)nc3)C2=S)cc1C(F)(F)F [Cpd 43, 5-[5-oxo-8-[6-(4-piperidyloxy)-3-pyridyl]-7-thioxo-6,8-diazaspiro[3.4]octan-6-yl]-3-(trifluoromethyl)pyridine-2-carbonitrile]
LNCaP-AR-F876L ANT pIC50 [1, 3]: 7.43 | LNCaP-AR-F876L ANT MAX % Inh [1, 4]: 100.0% | EC50 (AR W741C; HepG2, agonist mode, 48 hours, read-out: Agonism EC50, AR construct W741C): 2830 nM | Emax (AR W741C; HepG2, agonist mode, relative to R1881, read-out: Agonism % Emax, AR construct W741C): 0% | IC50 (AR W741C; HepG2, antagonist mode, 90 pM R1881, 48 hours, read-out: Antagonism IC50, AR construct W741C): 12300 nM | Emax (AR W741C; HepG2, antagonist mode, maximal inhibition, read-out: Antagonism % Emax, AR construct W741C): 85% | IC50 (VCaP cells): 270 nM | inhibition at 10 µM (AR in LNCaP cells): 50% | LNCaP-AR-wt ANT pIC50 [2, 3]: 7.27 | LNCaP-AR-wt ANT MAX % Inh [2, 4]: 101.1% | IC50 (GR (human)): > 30000 nM | EC50 (AR T877A; HepG2, agonist mode, 48 hours, read-out: Agonism EC50, AR construct T877A): 2290 nM | Emax (AR T877A; HepG2, agonist mode, relative to R1881, read-out: Agonism % Emax, AR construct T877A): 10% | IC50 (AR T877A; HepG2, antagonist mode, 90 pM R1881, 48 hours, read-out: Antagonism IC50, AR construct T877A): 6810 nM | Emax (AR T877A; HepG2, antagonist mode, maximal inhibition, read-out: Antagonism % Emax, AR construct T877A): 80%
